Results: PubChem BioAssay (NCI)
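Exposure lasted 48 hours, with cells grown in 96-well plates and compounds tested at five concentrations. TGI is the concentration that stops growth completely.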

How the values were obtained:
Experiment in all cases: growth of human tumour cells (NCI), 48 h
SK-OV-3 ovarian = system: SK-OV-3 ovarian
SNB-75 CNS = system: SNB-75 CNS
SN12C renal = system: SN12C renal
RXF 393 renal = system: RXF 393 renal
K-562 leukemia = system: K-562 leukemia
SNB-19 CNS = system: SNB-19 CNS
HL-60(TB) leukemia = system: HL-60(TB) leukemia
SK-MEL-5 melanoma = system: SK-MEL-5 melanoma
LOX IMVI melanoma = system: LOX IMVI melanoma
PC-3 prostate = system: PC-3 prostate
786-0 renal = system: 786-0 renal
NCI-H460 lung = system: NCI-H460 lung
CAKI-1 renal = system: CAKI-1 renal
MDA-N = system: MDA-N
A498 renal = system: A498 renal
BT-549 breast = system: BT-549 breast
MDA-MB-435 = system: MDA-MB-435
SF-295 CNS = system: SF-295 CNS
SF-539 CNS = system: SF-539 CNS
HT29 colon = system: HT29 colon
TK-10 renal = system: TK-10 renal
IGROV1 ovarian = system: IGROV1 ovarian
MALME-3M melanoma = system: MALME-3M melanoma
HS 578T breast = system: HS 578T breast
MCF7 breast = system: MCF7 breast
UO-31 renal = system: UO-31 renal
NCI-H23 lung = system: NCI-H23 lung
OVCAR-5 ovarian = system: OVCAR-5 ovarian
NCI-H226 lung = system: NCI-H226 lung
SW-620 colon = system: SW-620 colon
A549 NSCLC = system: A549 NSCLC
CCRF-CEM leukemia = system: CCRF-CEM leukemia
RPMI-8226 leukemia = system: RPMI-8226 leukemia
MDA-MB-231 breast = system: MDA-MB-231 breast
SR leukemia = system: SR leukemia
COLO 205 colon = system: COLO 205 colon
SK-MEL-28 melanoma = system: SK-MEL-28 melanoma
UACC-62 melanoma = system: UACC-62 melanoma
M14 melanoma = system: M14 melanoma
T-47D breast = system: T-47D breast
OVCAR-8 ovarian = system: OVCAR-8 ovarian
SK-MEL-2 melanoma = system: SK-MEL-2 melanoma
NCI/ADR-RES ovarian = system: NCI/ADR-RES ovarian
UACC-257 melanoma = system: UACC-257 melanoma
OVCAR-4 ovarian = system: OVCAR-4 ovarian
OVCAR-3 ovarian = system: OVCAR-3 ovarian
HCT-15 colon = system: HCT-15 colon
DU-145 prostate = system: DU-145 prostate
HCT-116 colon = system: HCT-116 colon
U251 CNS = system: U251 CNS
HOP-62 NSCLC = system: HOP-62 NSCLC
KM12 colon = system: KM12 colon
ACHN renal = system: ACHN renal
EKVX NSCLC = system: EKVX NSCLC
SF-268 CNS = system: SF-268 CNS
MOLT-4 leukemia = system: MOLT-4 leukemia
NCI-H522 lung = system: NCI-H522 lung
HOP-92 NSCLC = system: HOP-92 NSCLC

`CC(=O)OC1CCC2(C)C(CCC3C4CC=C(C5(C)OCCO5)C4(C)CCC32)C1` (centres undefined) was tested, and the TGI (SK-OV-3 ovarian) was over 100 µM, the TGI (SNB-75 CNS) was 73.7 µM and the TGI (SN12C renal) was 44.4 µM. It also gave a TGI (RXF 393 renal) of 40.3 µM, a TGI (K-562 leukemia) of over 100 µM and a TGI (SNB-19 CNS) of over 100 µM. For the same molecule, the TGI (HL-60(TB) leukemia) was 48.8 µM, the TGI (SK-MEL-5 melanoma) was 28.9 µM and the TGI (LOX IMVI melanoma) was 32.8 µM. The TGI (PC-3 prostate) was 54.2 µM, the TGI (786-0 renal) was 77.4 µM and the TGI (NCI-H460 lung) was 47.8 µM. For the same molecule, the TGI (CAKI-1 renal) was over 100 µM, the TGI (MDA-N) was 44 µM and the TGI (A498 renal) was 61.8 µM. The TGI (BT-549 breast) was 45.8 µM, the TGI (MDA-MB-435) was 47.9 µM and the TGI (SF-295 CNS) was 57.2 µM. It also gave a TGI (SF-539 CNS) of 42.7 µM, a TGI (HT29 colon) of 38.3 µM and a TGI (TK-10 renal) of over 100 µM. It also gave a TGI (IGROV1 ovarian) of 70.4 µM, a TGI (MALME-3M melanoma) of 53.4 µM and a TGI (HS 578T breast) of 60.1 µM. The TGI (MCF7 breast) was 53.9 µM, the TGI (UO-31 renal) was 62 µM and the TGI (NCI-H23 lung) was 66.6 µM. It also gave a TGI (OVCAR-5 ovarian) of 44.7 µM, a TGI (NCI-H226 lung) of 66.8 µM and a TGI (SW-620 colon) of 45.6 µM. For the same molecule, the TGI (A549 NSCLC) was over 100 µM, the TGI (CCRF-CEM leukemia) was 38.4 µM and the TGI (RPMI-8226 leukemia) was 34.1 µM. For the same molecule, the TGI (MDA-MB-231 breast) was over 100 µM, the TGI (SR leukemia) was 54.2 µM and the TGI (COLO 205 colon) was 32.9 µM. It also gave a TGI (SK-MEL-28 melanoma) of 43 µM, a TGI (UACC-62 melanoma) of 53.1 µM and a TGI (M14 melanoma) of 52.8 µM. For the same molecule, the TGI (T-47D breast) was over 100 µM, the TGI (OVCAR-8 ovarian) was 48.8 µM and the TGI (SK-MEL-2 melanoma) was 37.4 µM. The TGI (NCI/ADR-RES ovarian) was 46 µM, the TGI (UACC-257 melanoma) was 40.2 µM and the TGI (OVCAR-4 ovarian) was 61 µM. The TGI (OVCAR-3 ovarian) was 44 µM, the TGI (HCT-15 colon) was 80.6 µM and the TGI (DU-145 prostate) was over 100 µM. For the same molecule, the TGI (HCT-116 colon) was 45.3 µM, the TGI (U251 CNS) was 39.4 µM and the TGI (HOP-62 NSCLC) was 44.1 µM. It also gave a TGI (KM12 colon) of 67.4 µM, a TGI (ACHN renal) of over 100 µM and a TGI (EKVX NSCLC) of 44.1 µM. The TGI (SF-268 CNS) was over 100 µM and the TGI (MOLT-4 leukemia) was 65.5 µM.
In the case of `CN(C)CCNc1ccc(NCC[N+](C)(C)Cc2ccc([N+](=O)[O-])cc2)c2c1C(=O)c1ccccc1C2=O`, the TGI (SK-OV-3 ovarian) is reported as over 25 µM, the TGI (SNB-75 CNS) is reported as over 25 µM and the TGI (SN12C renal) is reported as over 25 µM. The TGI (RXF 393 renal) was over 25 µM, the TGI (HL-60(TB) leukemia) was 13.6 µM and the TGI (SK-MEL-5 melanoma) was over 25 µM. It also gave a TGI (LOX IMVI melanoma) of over 25 µM, a TGI (PC-3 prostate) of over 25 µM and a TGI (786-0 renal) of over 25 µM. For the same molecule, the TGI (CAKI-1 renal) was over 25 µM, the TGI (MDA-N) was over 25 µM and the TGI (A498 renal) was over 25 µM. For the same molecule, the TGI (BT-549 breast) was over 25 µM, the TGI (MDA-MB-435) was over 25 µM and the TGI (SF-295 CNS) was over 25 µM. For the same molecule, the TGI (HT29 colon) was over 25 µM, the TGI (TK-10 renal) was over 25 µM and the TGI (IGROV1 ovarian) was over 25 µM. For the same molecule, the TGI (MALME-3M melanoma) was over 25 µM, the TGI (HS 578T breast) was over 25 µM and the TGI (MCF7 breast) was over 25 µM. The TGI (UO-31 renal) was over 25 µM, the TGI (NCI-H23 lung) was over 25 µM and the TGI (OVCAR-5 ovarian) was over 25 µM. For the same molecule, the TGI (NCI-H226 lung) was over 25 µM, the TGI (SW-620 colon) was over 25 µM and the TGI (A549 NSCLC) was over 25 µM. The TGI (RPMI-8226 leukemia) was over 25 µM, the TGI (MDA-MB-231 breast) was over 25 µM and the TGI (SR leukemia) was over 25 µM. The TGI (COLO 205 colon) was over 25 µM, the TGI (SK-MEL-28 melanoma) was over 25 µM and the TGI (UACC-62 melanoma) was over 25 µM. It also gave a TGI (M14 melanoma) of over 25 µM, a TGI (T-47D breast) of over 25 µM and a TGI (OVCAR-8 ovarian) of over 25 µM. For the same molecule, the TGI (NCI-H522 lung) was over 25 µM, the TGI (SK-MEL-2 melanoma) was over 25 µM and the TGI (NCI/ADR-RES ovarian) was over 25 µM. It also gave a TGI (UACC-257 melanoma) of over 25 µM, a TGI (OVCAR-3 ovarian) of over 25 µM and a TGI (DU-145 prostate) of over 25 µM. The TGI (HCT-116 colon) was over 25 µM, the TGI (HOP-92 NSCLC) was over 25 µM and the TGI (U251 CNS) was over 25 µM. For the same molecule, the TGI (HOP-62 NSCLC) was over 25 µM, the TGI (KM12 colon) was over 25 µM and the TGI (ACHN renal) was over 25 µM. It also gave a TGI (EKVX NSCLC) of over 25 µM, a TGI (SF-268 CNS) of over 25 µM and a TGI (MOLT-4 leukemia) of over 25 µM.
With `NCCCN1CCN(c2ccccc2)CC1` the TGI (SNB-75 CNS) was over 100 µM, the TGI (SN12C renal) was over 100 µM and the TGI (RXF 393 renal) was over 100 µM. It also gave a TGI (K-562 leukemia) of over 100 µM, a TGI (SNB-19 CNS) of over 100 µM and a TGI (SK-MEL-5 melanoma) of over 100 µM. The TGI (LOX IMVI melanoma) was over 100 µM, the TGI (PC-3 prostate) was over 100 µM and the TGI (786-0 renal) was over 100 µM. The TGI (NCI-H460 lung) was over 100 µM, the TGI (CAKI-1 renal) was over 100 µM and the TGI (MDA-N) was over 100 µM. It also gave a TGI (A498 renal) of over 100 µM, a TGI (BT-549 breast) of over 100 µM and a TGI (MDA-MB-435) of over 100 µM. The TGI (SF-295 CNS) was over 100 µM, the TGI (HT29 colon) was over 100 µM and the TGI (TK-10 renal) was over 100 µM. The TGI (IGROV1 ovarian) was over 100 µM, the TGI (MALME-3M melanoma) was over 100 µM and the TGI (HS 578T breast) was over 100 µM. The TGI (MCF7 breast) was over 100 µM, the TGI (UO-31 renal) was over 100 µM and the TGI (OVCAR-5 ovarian) was over 100 µM. For the same molecule, the TGI (NCI-H226 lung) was over 100 µM, the TGI (A549 NSCLC) was over 100 µM and the TGI (RPMI-8226 leukemia) was over 100 µM. It also gave a TGI (MDA-MB-231 breast) of over 100 µM, a TGI (SR leukemia) of over 100 µM and a TGI (COLO 205 colon) of over 100 µM. It also gave a TGI (SK-MEL-28 melanoma) of over 100 µM, a TGI (UACC-62 melanoma) of over 100 µM and a TGI (M14 melanoma) of over 100 µM. For the same molecule, the TGI (T-47D breast) was over 100 µM, the TGI (OVCAR-8 ovarian) was over 100 µM and the TGI (NCI-H522 lung) was over 100 µM. The TGI (SK-MEL-2 melanoma) was over 100 µM, the TGI (NCI/ADR-RES ovarian) was over 100 µM and the TGI (UACC-257 melanoma) was over 100 µM. The TGI (OVCAR-4 ovarian) was over 100 µM, the TGI (OVCAR-3 ovarian) was 87.7 µM and the TGI (HCT-15 colon) was over 100 µM. For the same molecule, the TGI (DU-145 prostate) was over 100 µM, the TGI (HCT-116 colon) was over 100 µM and the TGI (HOP-92 NSCLC) was over 100 µM. It also gave a TGI (U251 CNS) of over 100 µM, a TGI (HOP-62 NSCLC) of over 100 µM and a TGI (KM12 colon) of over 100 µM. For the same molecule, the TGI (ACHN renal) was over 100 µM, the TGI (EKVX NSCLC) was over 100 µM and the TGI (SF-268 CNS) was over 100 µM. For the same molecule, the TGI (MOLT-4 leukemia) was over 100 µM.
